# Source: US7091183B1 (Boston Medical Center Corporation, priority 1996, dated 2006)
# Where no end group is shown, it is not given here.
# Tests used:
# [1] = test system: rats; assay: Oral glucose tolerance test in rats; type: in vivo, rat; details: ANTGIP 300 ng/kg i.p., glucose 1 g per kg by gavage
# Description: Oral glucose tolerance tests were performed on rats injected intraperitoneally with ANTGIP (SEQ ID NO:8) (300 ng/kg) or 0.9% saline solution. After the intraperitoneal injection of 0.9% NaCl or ANTGIP (SEQ ID NO:8), an oral glucose tolerance test was performed. The test was done by administering a 40% glucose solution by oral gavage at a dose of 1 g per kg. The volume administered to each rat was approximately 0.5 ml. Blood was obtained at various time points for subsequent measurement of plasma insulin and glucose levels.
# [2] = biological target: T1, rat GIP receptor (Rattus norvegicus, UniProt P43219); assay: Inhibition of GIP (1–42)-stimulated cAMP-dependent β-galactosidase production in LGIPR2 cells; type: cell-based
# T1 construct: expressed in transfected cells; host or cells: L cells (LGIPR2), also carrying a VIP-promoter/lacZ cAMP reporter
# T1 sequence (P43219 19-455): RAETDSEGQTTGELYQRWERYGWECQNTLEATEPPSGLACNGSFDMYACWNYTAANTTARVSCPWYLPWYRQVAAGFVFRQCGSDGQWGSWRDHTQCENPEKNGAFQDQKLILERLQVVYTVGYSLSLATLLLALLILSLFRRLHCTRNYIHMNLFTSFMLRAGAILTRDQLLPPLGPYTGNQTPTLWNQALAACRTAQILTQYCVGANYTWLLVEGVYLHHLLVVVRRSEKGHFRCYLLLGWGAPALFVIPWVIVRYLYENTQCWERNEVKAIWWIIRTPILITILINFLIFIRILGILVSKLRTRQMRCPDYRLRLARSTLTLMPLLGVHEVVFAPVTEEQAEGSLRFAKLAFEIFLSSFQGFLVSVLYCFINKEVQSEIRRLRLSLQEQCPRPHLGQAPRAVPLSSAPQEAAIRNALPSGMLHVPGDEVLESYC
# Description: LGIPR2 cells are stably transfected with a cAMP-dependent promoter from the VIP gene fused to the bacterial lac Z gene. When intracellular cAMP increases within these cells, lac Z gene transcription is activated, resulting in the accumulation of its product, β-galactosidase. The measurement of β-galactosidase in this system provided a convenient, inexpensive, and nonradioactive method for detecting changes in the levels of intracellular cAMP.
# LGIPR2 cells were grown in Dulbecco's Modified Eagle's Medium (DMEM) containing 4.5 g/L of glucose and 10% fetal calf serum. For each assay, 10^5 cells/well were seeded onto 24-well plates. After incubation overnight, peptides were added in various concentrations to the wells in the absence of 3-isobutyl-methylxanthine (IBMX) for 4 h, at which time maximal stimulation of β-galactosidase was determined. The medium was then removed and wells rinsed once with phosphate-buffered saline (PBS). The plates were then blotted briefly and frozen overnight at −70° C., and, after the addition of chlorophenol red-β-D-galactopyranoside, accumulated β-galactosidase was detected using a calorimetric assay, as described previously (Usdin, et al., 1993, Endocrinology, 133:2861–2870).
# Values are expressed as the mean±SE of quadruplicate measurements.
# [3] = biological target: T1, rat GIP receptor; assay: cAMP-dependent β-galactosidase production in LGIPR2 cells (agonist activity); type: cell-based
# Description: LGIPR2 cells are stably transfected with a cAMP-dependent promoter from the VIP gene fused to the bacterial lac Z gene. When intracellular cAMP increases within these cells, lac Z gene transcription is activated, resulting in the accumulation of its product, β-galactosidase. The measurement of β-galactosidase in this system provided a convenient, inexpensive, and nonradioactive method for detecting changes in the levels of intracellular cAMP. […] The medium was then removed and wells rinsed once with phosphate-buffered saline (PBS). The plates were then blotted briefly and frozen overnight at −70° C., and, after the addition of chlorophenol red-β-D-galactopyranoside, accumulated β-galactosidase was detected using a calorimetric assay, as described previously (Usdin, et al., 1993, Endocrinology, 133:2861–2870). […] Natl. Acad. Sci. USA, 90:1992–1996).
# [4] = test system: fasted anesthetized rats; assay: Intravenous infusion of peptides in fasting anesthetized rats, plasma insulin; type: in vivo, rat
# [5] = test system: conscious trained rats; assay: Postprandial plasma insulin, serum glucose and GLP-1 in trained conscious fed rats; type: in vivo, rat; details: for postprandial plasma insulin concentration: chow 30 min
# Description: Postprandial plasma insulin and serum glucose levels were studied in conscious trained rats. […] To avoid such a response, rats were trained for 10 d before experimentation. They were fasted from 17:00 to 08:00, and 0.9% NaCl (0.3 ml) was injected subcutaneously at 08:00 before feeding. After the injection of 0.9% NaCl, animals were given rat chow for 30 min, after which it was removed. At the end of ten days, the rats were accustomed to the injection and ate quickly (consuming 4–6 g of rat chow within 30 min).
# On the day of the experiment, after fasting from 17:00 the night before, trained rats were injected subcutaneously at 08:00 with 0.3 ml of either 0.9% NaCl or ANTGIP (SEQ ID NO:8) (100 nmol/kg). This dose was chosen to approximately the amount of peptide used in the anesthetized animal studies of Example 3. After injection, six of the fasted control rats were killed to obtain baseline serum glucose and insulin levels. ANTGIP (SEQ ID NO:8)- or 0.9% NaCl-treated rats (n=6 in each group) were exposed to chow for 30 min, after which food was withdrawn.
# [6] = test system: jejunal test segment of anesthetized rats; assay: Intestinal glucose absorption from perfused jejunal segment; type: in vivo, rat; details: ANTGIP 10 nmol/kg i.v. single injection, 30 minute perfusion
# Description: Male Sprague-Dawley rats weighing about 200–250 g are fasted overnight and anesthetized using intraperitoneal urethane (about 1.25 g per kg body weight). After midline laparotomy, an about 30-cm segment of jejunum, starting at about 5 cm distal to the ligament of Treitz, is isolated and flushed with approximately 20 ml of about 0.9% NaCl. The jejunal test segments are each perfused twice, initially with control buffer and then once again with control buffer or with the test solution. The test solution consists of Kres-Ringer-bicarbonate buffer containing about 5 mmol/L [^14C]D-glucose, and ^3H-labeled polyethylene glycol is included in the luminal perfusate to correct for fluid movement. The test or control solution is perfused through the jejunal segment without recirculation at a flow rate of about 1.6 ml/min, using a Harvard PHD 2000 syringe pump (Harvard Apparatus, Millis, Mass.). The effluent from the luminal segment is collected at about 5-min intervals for about 30 min. After the initial period of perfusion, the luminal contents in the jejunum are flushed with about 20 ml of about 0.9% NaCl prior to the initiation of the second period of perfusion.
# Data points are believed to represent the rate of glucose disappearance from the luminal perfusate corrected for fluid movement. Results are expressed as the mean±SE of five experiments. […]
# [7] = 20 min, ANTGIP 100 nmol/kg s.c.
# [8] = 40 min, ANTGIP 100 nmol/kg s.c.
substance,measurement,setting,value
"ISDYSIAMDKIRQQDFVNWLLAQK-NH2 [ANTGIP, GIP (7–30)-NH2]",plasma glucose after oral glucose versus control rats,[1],diminished at all time points
same,plasma insulin levels after oral glucose,[1],reduced plasma insulin levels
same,IC50,[2],100 nM
same,antagonism of the cAMP stimulatory effect of GIP (1–42),"[2]; 10^−8 M GIP (1–42) plus fragment at 10^−8 M or 10^−6 M, 4 h",attenuate the cAMP stimulatory effects
same,stimulation of cAMP-dependent β-galactosidase production (versus GIP (1–42) / above control levels),"[3]; 10^−8 M peptide, 4 h",none
same,increase in cAMP-dependent β-galactosidase level,[3]; concentration as high as 10^−4 M,did not stimulate a detectable increase
same,"change in the insulin response to GLP-1, glucose or arginine",[4]; ANTGIP 100 nmol/kg concomitantly,No significant change
same,effect on the insulinotropic properties of GIP,[4]; ANTGIP 100 nmol/kg concomitantly with GIP 1.5 nmol/kg,completely abolished
same,"effect on insulin secretion, alone","[4]; ANTGIP infusion alone, 30 min",had no effect on insulin secretion
same,postprandial serum GLP-1 level,[5]; [7],290 ± 10 pg/mL
same,postprandial plasma insulin concentration,[5]; [7],25.3±4.7 μIU/ml
same,postprandial serum GLP-1 concentration,[5]; [8],330±20 pg/mgl
same,postprandial plasma insulin concentration,[5]; [8],27.1±2.6 μIU/ml
same,postprandial serum glucose concentration versus saline,[5]; ANTGIP 100 nmol/kg s.c.,similar
same,decrease in postprandial insulin release,[5]; chow-fed rats,72%
same,absorption of D-glucose from the jejunal test segment,[6],significantly reduce
